Data: EP3366695B1, “SAPOSIN-A DERIVED PEPTIDES AND USES THEREOF” (Children's Medical Center Corporation, priority 2009, dated 2021)

Key:
Tsp-1 [1] = test: Tsp-1 expression in WI-38 lung fibroblasts, western blot; assay type: cell-based, human
Protocol: For Western blotting, cells were harvested by mechanical scraping into 4°C PBS, cell pellets were obtained by removing PBS after centrifugation at 13,000rpm in a Heraeus Biofuge Fresco (Thermo Electron, Asheville, NC) for 2 min. Cells were then lysed in 50 mM Tris-HCl (pH 7.4), 150 mM NaCl, 1 % NP40, 1 mM sodium orthovanadate, 5 mM NaF, 20 mM β-glycerophosphate, and complete protease inhibitor (Roche, Indianapolis, IN) and protein concentrations were determined by the BioRad protein assay (BioRad, Hercules, CA). Fifty micrograms of protein were loaded per well onto a 4-12 % pre-cast Bis-Tris gel (BioRad, Hercules, CA). The protein extracts were electrophoresed and transferred to an immobilon-P membrane (Millipore, Bedford, MA). The membranes were blocked in 5 % nonfat milk and incubated in primary antibody to Tsp-1 (Ab-11, LabVision, Fremont, CA), c-Myc and phospho-Myc (Cell Signaling Technology, Beverly, MA), Prosaposin (Santa Cruz Biotechnology, Santa Cruz, CA), β-actin (AbCam, Cambridge, UK). […] Protein volume intensity was determined using a Bio-Rad Chemi-Doc XRS system (Bio-Rad, CA). […]
Seven 20-amino acid (20-mer) peptides derived from saposin A were tested for ability to stimulate Tsp-1 expression in fibroblasts. […] WI-38 lung fibroblasts were treated with these peptides overnight and the Tsp-1 expression was analyzed by Western blot analysis. […]

thrombospondin-1 (Tsp-1) = test: Tsp-1 expression in lungs and livers of treated mice, western blot; assay type: in vivo
Protocol: The 20-mer […] (SEQ. ID. No. 29) was tested in vivo in mice for their ability to induce Tsp-1 expression. Four mice were treated with the 20-amino acid peptide (residues 31-50 of saposin A) at a dose of 30mg/kg/day in combination with 200uL of conditioned media (CM) from the metastatic prostate cancer cell line PC3M-LN4. […] Another four mice were treated with CM from PC3M-LN4 alone, and a control group of four mice with treated with vehicle (PBS) alone. […] Mice were treated for 9 days after which they were sacrificed and the lungs and livers were harvested and lysed. Tissue lysates were then run on a 4-12% gradient bis-tris polyacrylamide gel and transferred to a nitrocellulose membrane for western blotting with antibodies specific for thrombospondin-1 (Tsp-1) and β-actin.

p53 [2] = test: p53 expression in prostate fibroblasts, western blot; assay type: cell-based, human; details: PC3 conditioned media in the presence of the inhibitor
Protocol: (§1) Methods of assaying the effects of mutant, fragment or variant Psap on Tsp-1 and p53 expression are described herein. Briefly, full-length, mutant, fragment and variant Psap are applied to the cell cultures prostate fibroblast. The conditioned media from PC3M-LN4 (LN4) and PC3 cells are used as controls, with PC3 as positive/stimulating control and LN4 as negative/inhibiting controls. After a period of […] (∼16 h), the cells are harvested, rinsed, and lysed. The lysates are analyzed for the level of Tsp-1 and p53 expression by western blot analyses, with β-actin as the internal lysate protein loading control. […]
(§2) For Western blotting, cells were harvested by mechanical scraping into 4°C PBS, cell pellets were obtained by removing PBS after centrifugation at 13,000rpm in a Heraeus Biofuge Fresco (Thermo Electron, Asheville, NC) for 2 min. Cells were then lysed in 50 mM Tris-HCl (pH 7.4), 150 mM NaCl, 1 % NP40, 1 mM sodium orthovanadate, 5 mM NaF, 20 mM β-glycerophosphate, and complete protease inhibitor (Roche, Indianapolis, IN) and protein concentrations were determined by the BioRad protein assay (BioRad, Hercules, CA). […] Protein volume intensity was determined using a Bio-Rad Chemi-Doc XRS system (Bio-Rad, CA).

Tsp-1 [3] = test: Tsp-1 expression in prostate fibroblasts, western blot; assay type: cell-based, human; details: PC3 conditioned media in the presence of the inhibitor
Protocol: as §1, §2

MDM2 = MDM2 protein levels in WI-38 fibroblasts, western blot; assay type: cell-based, human; details: cyclic 13-mer plus D4476
p53 [4] = test: p53 expression in WI-38 fibroblasts, western blot; assay type: cell-based, human; details: cyclic 13-mer plus D4476
[5] = mice treated for 9 days, relative to control (vehicle PBS)
[6] = mice, 30mg/kg/day with 200uL PC3M-LN4 CM, 9 days, compared to PC3M-LN4 CM

LEKTCDWLPKPNMSASCKEI [20-mer, 20-mer peptide, residues 31-50 of saposin A]
Tsp-1 expression (Tsp-1 [1]; WI-38 fibroblasts treated with peptide): able to stimulate Tsp-1 expression | Tsp-1 expression in the liver (thrombospondin-1 (Tsp-1); [5]): stimulated Tsp-1 expression over control | Tsp-1 expression in the lung (thrombospondin-1 (Tsp-1); [5]): stimulated Tsp-1 expression over control | stimulated expression of Tsp-1 in the liver (thrombospondin-1 (Tsp-1); [6]): 4 fold | stimulated expression of Tsp-1 in the lung (thrombospondin-1 (Tsp-1); [6]): 6 fold | level of stimulation of Tsp-1 (thrombospondin-1 (Tsp-1); mice, 9 days, compared with positive control PC3 conditioned media): greater than that of the weakly metastatic pancreatic cancer cell line PC3

COc1ccc2c(c1)c(C1=C(c3c[nH]c4ccccc34)C(=O)NC1=O)cn2CCCN(C)C [Gö 6983]
stimulation of p53 by PC3 CM (p53 [2]): abolished the stimulation of Tsp-1 and p53 | stimulation of Tsp-1 by PC3 CM (Tsp-1 [3]): abolished the stimulation of Tsp-1 and p53

NC(=O)c1ccc(-c2nc(-c3ccc4c(c3)OCCO4)c(-c3ccccn3)[nH]2)cc1 [D4476]
Tsp-1 protein levels (Tsp-1 [1]; WI-38 fibroblasts, cyclic 13-mer plus D4476): reduction of Tsp-1 and p53 | MDM2 protein levels (MDM2): increase in MDM2 protein levels | p53 protein levels (p53 [4]): reduction of Tsp-1 and p53
